Measurements taken from patent US20200306295A1, “METHOD AND DEVICE FOR ANNIHILATION OF Staphylococcus aureus” (priority 2017, published 2020).
≈ marks a conversion by molar mass, not a printed value.

How the values were obtained:
[1] = test system: MRSA NRS384 (MRSA USA 300); experiment: MIC by standard broth-dilution method; assay type: cell-based, S. aureus; settings: Staphylococcus aureus; MRSA NRS384 (MRSA USA 300); N = 3; read-out: MIC
Text: (§1) For each measurement, three independent replicates were applied.

stationary-phase MRSA [2] = experiment: Time-killing assay in PBS with or without pulsed laser (CFU enumeration); assay type: cell-based, S. aureus; settings: after 6 hours in PBS
Procedure: (§2) To quantify viable bacterial cells, CFU experiments were performed. 100 μl of sample analyte was transferred into a 96-well plate and then three or four ten-fold serial dilution achieved by transferring 20 μl bacterial culture into 180 μl 1×PBS in the next dilution row. After serial dilution, an aliquot (4 μl) from each well was spotted onto sterile TSA plates. After incubating the plates overnight (˜18 hours) at 37° C., the colonies were enumerated, and cell number was calculated in CFU/ml. For each CFU enumeration experiment, three independent replicates were applied.
(§3) Stationary-phase MRSA was prepared, washed and resuspended in 1×PBS at two-times of its original concentration. […] After laser treatment, the droplets were resuspended into 200 μl of 1×PBS (1:40 dilution) supplemented with antibiotics at different concentrations in a mini centrifuge tube (89166-278, VWR international). For example, daptomycin was added into MRSA solution after laser treatment at desired concentration of 0×MIC, 5×MIC, 10×MIC, 30×MIC, or 100×MIC supplemented with 50 μg/ml CaCl2). Corresponding groups without laser treatment were also conducted for comparison. These tubes were incubated within an orbital incubator (37° C., 200 rpm) for different incubation time. At each specific time point, 40 μl of aliquot from each group was transferred to a 96-well plate for follow-up CFU enumerating assay. In the case of tobramycin, additional antibiotic washing by 1×PBS was performed before the CFU experiment to avoid antibiotic interference. For time-killing assay in fresh human whole blood, similar protocol was followed as above, except that 1×PBS was replaced by fresh human whole blood and the initial stationary-phase MRSA solution was diluted by ten times with a concentration of ˜10^7 CFU/ml.

[3] = test system: VRSA and multidrug-resistant MRSA clinical isolates; experiment: Time-killing assay on resistant clinical isolates; assay type: cell-based, S. aureus; settings: 10 MIC daptomycin and laser treatment
Procedure: as §2
as §3, with “In the case of tobramycin, additional antibiotic washing by 1×PBS was performed before the CFU experiment to avoid antibiotic interference. For time-killing assay in fresh human whole blood, similar protocol was followed as above, except that 1×PBS was replaced by fresh human whole blood and the initial stationary-phase MRSA solution was diluted by ten times with a concentration of ˜10^7 CFU/ml.” left out

MRSA USA300 = experiment: In vivo mice skin infection model (daptomycin, pulsed laser); parameters: species or system BALB/c mice
Procedure: The in vivo mice experiment was conducted following protocols approved by Boston University Animal Care and Use Committee (BUACUC). To initiate the formation of a skin wound, five groups (N=5) of eight-week-old female BALB/c mice (obtained from the Jackson Laboratory, ME, USA) were disinfected with ethanol (70%) and shaved on the middle of their back (approximately a one-inch by one-inch square region around the injection site) one day prior to infection as described from a reported procedure^45. To prepare the bacterial inoculum, an aliquot of overnight culture of MRSA USA300 was transferred to fresh TSB and shaken at 37° C. until an OD600 value of ˜1.0 was achieved. The cells were centrifuged, washed once with 1×PBS, re-centrifuged, and then re-suspended in 1×PBS. Mice subsequently received an intradermal injection (40 μl) containing ˜10^9 CFU/ml MRSA USA300. An open wound formed at the site of injection for each mouse, ˜48 hours post-infection. Topical treatment was initiated subsequently with each group of mice receiving the following: daptomycin (1%, using glycerol as the vehicle), pulsed laser (1 cm diameter illumination area, 10 min treatment time, 120 mW), or a combination of pulsed laser and daptomycin. One group of mice was left as the control. […] Data were analyzed via an unpaired t-test, utilizing Origin 2019b (OriginLab Corporation).

stationary-phase MRSA [4] = experiment: Daptomycin-BODIPY membrane insertion assay; assay type: cell-based, S. aureus; settings: daptomycin labeled with BODIPY
Procedure: To study how the membrane fluidity change affects the insertion of membrane-targeting antibiotics, we applied daptomycin-BODIPY membrane insertion assay detailed as below. Firstly, we conjugated daptomycin with a fluorescent dye, BODIPY STP ester (B10006, Thermo Fisher Scientific). Briefly, 10 mg of daptomycin (103060-53-3, Acros Organics) was dissolved into 1 ml of 0.1 M sodium bicarbonate solution. Then 100 μl of BODIPY STP ester (B10006, Thermo Fisher Scientific, stock: 1 mg/ml in DMSO) was added to the daptomycin solution drop by drop. Then the mixed solution reacted under stirring at room temperature for 1 hour. Afterwards, the solution was under overnight dialysis against extensive 0.1 M sodium bicarbonate solution. After dialysis, the mixed solution was lyophilized. […] After treatment, bacterial droplets were collected into 985 μl of sterile pre-warned TSB medium containing 150 μg/ml of CaCl2. 10 μl of daptomycin-BODIPY (stock: 3 mg/ml in 1×PBS) was added to the above solution, and incubated for 30 min at 37° C. […] Confocal laser scanning microscope (FV3000, Olympus) was conducted to quantify daptomycin-BODIPY distribution and its signal intensity at an excitation wavelength of 488 nm. Quantitative analysis of the signal from individual MRSA cells was performed among groups with different laser treatment time.

VRSA NR-46419 (VRSA 9) = experiment: MIC by standard broth-dilution method; assay type: cell-based, S. aureus; settings: Staphylococcus aureus, N = 3
Text: as §1

stationary-phase MRSA [5] = assay type: cell-based, S. aureus; settings: checkerboard assay, MRSA growth inhibition
Procedure: To monitor the response of bacteria to laser treatment alone, antibiotic treatment alone, or their combinations, bacterial growth was continuously monitored overnight (18 hours with an interval of 30 min at 37° C.) by measuring optical density at 600 nm (OD600). Depending on the specific assay applied, the bacterial cells were suspended in 100 or 200 μl TSB medium under different treatment schemes (antibiotic alone, laser treatment alone, antibiotic plus laser treatment) with a final concentration of ˜10^5 CFU/ml. Bacterial growth was defined as OD600≥0.1.
Stationary-phase bacterial cells was washed and resuspended in 1×PBS at its original concentration. […] The treated droplet was collected and resuspended into 5 ml TSB (1:1000 dilution) for each group. Corresponding groups without laser treatment were also conducted for comparison. The bacterial suspensions were transferred to a 96-well plate with antibiotics supplemented into with the first row of the 96-well plate for eight two-fold serial dilution starting at a desired antibiotic concentration (e.g. ofloxacin: 2 μg/ml). After serial dilution, bacterial growth within the same well plate was monitored by a plate reader for 18 hours (OD600, 37° C.). The checkerboard assay was used for groups with laser treatment alone or laser plus antibiotic treatment. Two independent experiments of checkerboard assay were performed for each antibiotic with or without laser treatment. Based on the readout of OD600, a heat map was created to evaluate the antibiotic potentiation or synergistic effect enabled by STX photolysis.
Based on the checkerboard results, the fractional inhibitory concentration index (FICI), a synergy evaluation method between two antibiotics, was calculated as below: FICI=MIC of antibiotic A in combination/MIC of antibiotic A alone+MIC of antibiotic B in combination/MIC of antibiotic B alone. The interaction of the two antibiotics was defined as below: synergy if FICI≤0.5, no interaction if 0.5<FICI≤4, antagonism if FICI>4^46. […] Considering this reason, the synergy calculation was simplified as below: FICI=MIC of antibiotic A in combination with laser treatment/MIC of antibiotic A alone with synergy defined by FICI≤0.5.

[6] = test system: S. aureus (ATCC 6538) biofilm; settings: antibiotic alone
[7] = test system: MRSA USA400 inside murine macrophage cells (J774); experiment: Intracellular MRSA infection model in J774 macrophage cells; settings: infected macrophage cells; vancomycin 2 μg/mL (4×MIC)

Row | SMILES | MIC [1] | reduction of stationary-phase MRSA (stationary-phase MRSA [2]; 10 MIC with 5 min laser treatment) | reduction of stationary-phase MRSA (stationary-phase MRSA [2]; antibiotic alone at 100 MIC) | eradication by synergistic therapy [3] | cell killing in infected skin (CFU) (MRSA USA300; 10 mg/ml daptomycin alone, topical) | cell killing in infected skin (CFU) (MRSA USA300; 10 mg/ml daptomycin plus 10 min laser) | cellular uptake / membrane insertion with laser treatment vs untreated (stationary-phase MRSA [4]) | MIC (VRSA NR-46419 (VRSA 9)) | synergism between laser treatment and antibiotic (stationary-phase MRSA [5]) | MRSA killed inside biofilm [6] | killing of intracellular MRSA 400 (CFU) [7]
1 | CCCCCCCCCC(=O)N[C@@H](Cc1c[nH]c2ccccc12)C(=O)N[C@H](CC(N)=O)C(=O)N[C@@H](CC(=O)O)C(=O)N[C@@H]1C(=O)NCC(=O)N[C@@H](CCCN)C(=O)N[C@@H](CC(=O)O)C(=O)N[C@H](C)C(=O)N[C@@H](CC(=O)O)C(=O)NCC(=O)N[C@H](CO)C(=O)N[C@@H]([C@H](C)CC(=O)O)C(=O)N[C@@H](CC(=O)c2ccccc2N)C(=O)O[C@@H]1C [Daptomycin, daptomycin] | 8 µg/mL (≈ 4.94 µM) | more than 3.5 log | 1 log | effective in eradicating | 81% | around 95% | significantly more daptomycin uptake |  |  |  | 
2 | CN[C@H](CC(C)C)C(=O)N[C@H]1C(=O)N[C@@H](CC(N)=O)C(=O)N[C@H]2C(=O)N[C@H]3C(=O)N[C@H](C(=O)N[C@H](C(=O)O)c4cc(O)cc(O)c4-c4cc3ccc4O)[C@H](O)c3ccc(c(Cl)c3)Oc3cc2cc(c3O[C@@H]2O[C@H](CO)[C@@H](O)[C@H](O)[C@H]2O[C@H]2C[C@](C)(N)[C@H](O)[C@H](C)O2)Oc2ccc(cc2Cl)[C@H]1O [Vancomycin, vancomycin] |  |  |  |  |  |  |  | 256 µg/mL (≈ 177 µM) | no synergism | 70% | no effect
